This is an account of results in ChEMBL document CHEMBL1949522, “Acremostrictin, a highly oxygenated metabolite from the marine fungus Acremonium strictum” (J Nat Prod, 2011).

The subject of assay [1] is Radical scavenging activity. The experiment in a line: Antioxidant activity assessed as DPPH radical-scavenging activity after 30 mins by spectrophotometric analysis. It counts as functional. (In general: The DPPH test is a chemical assay of radical scavenging.)
For assay [2], the system named is K562. Put plainly: Anticancer activity against human K562 cells. It counts as functional, cell-based.
In assay [3] the test system is Bacillus subtilis. The experiment in a line: Antibacterial activity against Bacillus subtilis ATCC 6633 after 24 hrs. The format is functional. The note with it: ATCC 6633, 24 h.
Assay [4] has as its system Micrococcus luteus. Put plainly: Antibacterial activity against Micrococcus luteus IFO 12708 after 24 hrs. The format is functional. The note with it: IFO 12708, 24 h.
Assay [5] deals with Staphylococcus aureus. Put plainly: Antibacterial activity against Staphylococcus aureus ATCC 6538p after 24 hrs. It counts as functional.
The subject of assay [6] is Escherichia coli. Put plainly: Antibacterial activity against Escherichia coli ATCC 35270 after 24 hrs. It counts as functional. The settings on record: ATCC 35270, 24 h.
Assay [7] relates to HaCaT. Put plainly: Antioxidant activity in human HaCaT cells assessed as inhibition of H2O2-induced cell death pretreated for 1 hr prior to H2O2 challenge measured after 24 hrs by spectrophotometric analysis. It counts as functional, cell-based.
Assay [8] deals with Salmonella typhimurium. The experiment in a line: Antibacterial activity against Salmonella Typhimurium ATCC 14028 after 24 hrs. It counts as functional, Salmonella enterica subsp. enterica serovar Typhimurium. The settings on record: Salmonella enterica, ATCC 14028, 24 h.
The test system of assay [9] is Proteus vulgaris. Put plainly: Antibacterial activity against Proteus vulgaris ATCC 3851 after 24 hrs. The format is functional. The settings on record: ATCC 3851, 24 h.

Broadly, the IC50 is the concentration at which inhibition is half-maximal. Broadly, the MIC is the lowest concentration that inhibits growth of the organism. A low value points to inhibition by little substance.

Converted amounts (≈) assume the structure as drawn. The source made the active and inactive calls. No cut-off for these calls is given here.

For the molecule `CC1=C[C@@H]2C[C@]3(C)OC(=O)[C@@](O)([C@H]3C)[C@]2(O)C1=O` (relative stereo), in assay [1], the Activity entry is “Dose-dependent effect”. Besides, the 50% inhibitory concentration (IC50) in assay [1] was determined as 2100 µM. Besides, in assay [2], the outcome was inactive. For the same molecule, the MIC in assay [3] was above 100 µg/mL; in [4], 50 µg/mL (≈ 198 µM); in assay [5], above 100 µg/mL; in [6], above 100 µg/mL; in [8], 50 µg/mL (≈ 198 µM); in [9] it was 12.5 µg/mL (≈ 49.6 µM). Moreover, the inhibition result in assay [7] was “Dose-dependent effect”.
